Experiments:
[1] = test system: sebaceous-gland-structure A; test: Observation of inside of sebaceous-gland-structure, lipid droplets of sebum in outermost layer / degree of progress of sebum production (Example 2); type: cell-based; conditions: test sample D, linoleic acid 1×10^−4 M plus test substance 1 μM, 24 hours (Experiment number 9); FIGS. 9 and 10
Experimental: Linoleic acid and linoleic acid receptor antagonist (manufactured by Abeam plc, trade name: GSK-3787) as test substances were added to the mixed medium obtained in Preparation Example 1 so that the concentration of linoleic acid was 1×10^−4 M and so that the concentration of the test substance was 1 μM, to obtain a test sample D.
One milliliter of the test sample A was added to each well of a 24-well plate. Next, the sebaceous-gland-structure A obtained in Preparation Example 6 was cultured in a suspended state in the test sample A in each well of the 24-well plate in the presence of 5% by volume carbon dioxide at 37° C. for 24 hours, to contact the sebaceous-gland-structure A with the test sample A (Experiment number 7). […]
Furthermore, the state of each cell of 40 cells in the outermost layer shown in each figure was evaluated by using the results shown in FIGS. 7 to 9 on the basis of the evaluation criterion described below. […]
Next, the degree of progress of sebum production in the sebaceous gland cell contained in the sebaceous-gland-structure A was evaluated by calculating the mean value of the points in the 40 cells in the outermost layer in FIGS. 7 to 9. […]

[2] = test system: sebaceous-gland-structure A; test: Degree of sebum production from three-dimensional image analysis of outermost layer (Example 4); type: cell-based; conditions: 24 hours
Experimental: Linoleic acid and phytic acid as test substances were added to the mixed medium obtained in Preparation Example 1 (test sample A) so that the concentration of linoleic acid was 1×10^−4M and so that the concentration of the test sample was 100 μM, to obtain a test sample E. One milliliter of the test sample A was added to each well of a 24-well plate. Text, the sebaceous-gland-structure A obtained in Preparation Example 6 was cultured in a suspended state in the test sample A contained in each well of the 24-well plate in the presence of 5% by volume carbon dioxide at 37° C. for 24 hours, to contact the sebaceous-gland-structure A with the test sample A (Experiment number 10). In addition, the sebaceous-gland-structure A was contacted with the test sample B (Experiment number 11) or the test sample E (Experiment number 12) in the same manner as in Experiment, number 10 except that in Experiment number 10, the test sample B obtained in Example 1(1) (Experiment number 11) or the test sample E obtained in Example 4(1) (Experiment number 12) was used in place of the test sample A. Each of observation samples of Experiment numbers 10 to 12 was obtained in the same manner as in Preparation Example 7 except that in Preparation Example 7, the cultured sebaceous-gland-structure A obtained in Example 4(2) (Experiment numbers 10 to 12) was used in place of the cultured sebaceous-gland-structure A obtained in Preparation Example 6. The appearance of the sebaceous-gland-structure A contained in the observation sample of each of Experiment numbers 10 to 12 obtained in Example 4(3) was observed under a confocal microscope by using image analysis software (manufactured b Bitplane AG, trade name: Imaris), thereby giving three-dimensional image of the sebaceous-gland-structure A. Next, information of the outermost layer of the sebaceous-gland-structure A was extracted from the data of the resulting three-dimensional image by using image analysis software (manufactured by Bitplane AG, trade name: Imaris). Thereafter, the whole volume of the cells present in the outermost layer was calculated from the extracted information, and thereafter the sebum droplets contained in the outermost layer were counted. Using the whole volume of the cells present in the outermost layer and the number of lipid droplets of the sebum the degree of sebum production was calculated according to Formula (I): [Degree of Sebum production]=[Number of lipid droplets of sebum]/[Whole volume of cells present in outermost layer] (I)

SMILES	lipid droplets of sebum in the outermost layer of the sebaceous-gland-structure A [1]	sebum production-regulating action ([2]; phytic acid 100 μM in presence of linoleic acid 1×10^−4 M, conclusion from FIG. 11)	degree of sebum production (number of lipid droplets of sebum / whole volume of cells present in outermost layer) ([2]; test sample E, linoleic acid 1×10^−4 M plus phytic acid 100 μM, compared with test sample containing linoleic acid, FIG. 11)
O=C(NCCS(=O)(=O)c1ccc(C(F)(F)F)cn1)c1ccc(Cl)cc1 [linoleic acid receptor antagonist, GSK-3787]	no lipid droplet of sebum was found	–	–
O=P(O)(O)O[C@H]1[C@H](OP(=O)(O)O)[C@@H](OP(=O)(O)O)[C@H](OP(=O)(O)O)[C@@H](OP(=O)(O)O)[C@H]1OP(=O)(O)O [phytic acid]	–	sebum production-inhibiting action	lower
